# Test results taken from PMC10313368 (The Journal of Clinical Investigation, 2023).
# Like-named read-outs stand apart in the source and are kept apart here.
# Legend:
# [1] = test system: BL/6 mice; experiment: Fundus photos and fluorescein angiography after systemic (i.p.) administration; type: in vivo, mouse; conditions: adult mice, 1 month following 5 consecutive i.p. injections of 40 or 80 mg/kg
# Protocol: protocol, the sections were rinsed three times with PBS for 2 minutes. Images were captured at high magnification (20X) with Zeiss fluorescent microscope.
# Flash scotopic ERGs. All procedures were performed under dim red light. Mice were dark adapted overnight, anesthetized with ketamine (50 mg/kg) and xylazine (5mg/kg) and pupils were dilated with a topical drop of tropicamide (1%). Scotopic ERG responses were measured using the Celeris ERG stimulator (Diagnosys, Lowell, MA) at flash intensities of 0.025, 0.25, 2.5, 7.96, and 79.06 cd/s/m2. ERGs were measured simultaneously from both eyes with a ground electrode placed into the forehead between the eyes and a reference electrode into the hip.
# Fluorescein angiography in mice. […]
# vascular permeability, experimental animals were treated with 5 consecutive daily IP injections […]
# On day 30, mice were anesthetized using intramuscular injection with ketamine (50 mg/kg) and xylazine (5mg/kg). […] Fluorescein leakage manifests as indistinct vascular borders progressing to diffusely hazy fluorescence. Fluorescein leakage was compared between different groups by quantifying the fluorescence intensities collected after 1-, 2-, and 3-minutes following fluorescein injection using the ImageJ software.
# [2] = test system: MIO-M1 cells; experiment: mRNA angiogenesis array (TaqMan Array qPCR) in MIO-M1 cells; type: cell-based, human
# Protocol: Angiogenesis array. Total RNA was isolated from MIO-MI cells (8 hours) and HUVECs (16 […]
# cDNA was prepared with QuantiTect® Reverse Transcription Kit (Qiagen, Cat# 205311). RT-qPCR assay was performed with pre-configured TaqMan Array 96-Well FAST Plate for human angiogenic gene expression (Applied Biosystems, Inc) following the manufacture’s protocol. Each plate contains pre-defined genes including 18S, GAPDH and HPRT1 endogenous controls.
# TaqMan Array plates were prepared by loading on each well 5 μl of cDNA sample (30 ng) with nuclease-free water and 5 μl of TaqMan™ Fast Advanced Master Mix (Applied Biosystem, Cat# […]
# 4444554). The reaction was performed using the QuantStudio™ 3 Flex Real‐Time PCR System as follows: 2 minutes at 50°C (stage 1); 10 minutes at 95°C (stage 2); 15 seconds at 95°C and 1 minutes at 60°C for 40 cycles (stage 3). The data were analyzed by using HPRT1 as endogenous […]
# The clustering heatmaps were produced with “pheatmap” library in R with scale = row and clustering method = complete.
# HUVEC cells, Euclidean distance was used to quantify the difference in qPCR screening. The Euclidean distance was calculated using “dist” function from R’s default stat library that measures
# [3] = Mouse pharmacokinetics in retina after intraocular injection (LC-MS/MS); type: in vivo; conditions: for AUC % Extrapolated / AUClast / Cmax / half-life / Tmax: retina; for half-life / Tmax: C57BL/6, mouse, topical or ocular; for half-life: 280 ng
# Protocol: intraocular injection. Mice (at least 3 mice per time point) were euthanized at 1, 3, 7, or 14 days after injection. For the 280-ng dose, a 10-day time point was added. […]
# retina by LC-MS/MS as previously described (5) with the following modifications. Retina tissue samples were homogenized in 200 μL of 1× PBS (pH 7.4) before extraction. The standard curve and quality control samples were prepared in 1× PBS as a surrogate matrix. Retina tissue samples were then quantitated in µM as: nominal concentration (µM) × initial dilution ([tissue weight (mg) + volume of solvent (μl)]/ tissue weight (mg)). For all samples <10 nM, the value was reported as below the limits of detection. If at least on samples was >10 nM and one was <10 nM, then one half that value (5 nM) was imputed to calculate the concentration for that specimen and utilized in the average and standard deviation calculations.
# Pharmacokinetic parameters were calculated from mean concentration-time data using noncompartmental methods in Phoenix WinNonlin version 8.3 (Certara, Princeton, NJ, USA). The Cmax and time to Cmax (Tmax) were the observed values. The AUClast was calculated using the log-linear trapezoidal method to the last quantifiable time point. The λz was determined from at least 3 points on the slope of the terminal phase of the concentration-time profile using a 1/y2 weighting factor. The T1/2 was determined by dividing 0.693 by λz. T1/2 was not reported if the correlation coefficient (r2) for λz was less than 0.9.
# Bioanalytical method for mouse pharmacokinetics. Retina tissue samples were homogenized in 200 μL of 1× PBS (pH 7.4) before extraction. The standard curve and quality control samples were prepared in 1× PBS as a surrogate matrix for all matrices. Tissue homogenate or PBS (25 μL) was […]
# respectively. Dwell time was 150 milliseconds. […]
# constructed from the peak area ratio of the analyte to the peak area of its internal standard (EXP-3179) using the least-squares quadratic regression analysis with 1/x2 weight over the range of 10-2,110 nM with dilutions of up to 1:10 (v/v). […]
# [4] = MIO-M1, hypoxia+32-134D, 8 hours, Figure 7G
smiles,measurement,setting,value
"Brc1ccc2c(-c3csc(-c4c[nH]c5c(Br)cccc45)n3)c[nH]c2c1 [32-134D, 4-(6-bromo-1H-indol-3-yl)-2-(7-bromo-1H-indol-3-yl)thiazole]",fundus and fluorescein angiogram,[1],normal-appearing fundus without evidence of retinal vascular injury or leakage
same,reduction in the Euclidean distance between control and hypoxic cell angiogenic gene expression,"[2]; MIO-M1, from 73 to 31",58%
same,mRNA transcripts of angiogenic genes versus cells cultured in hypoxia (in words),"[2]; MIO-M1, hypoxia + 32-134D",substantially reduced
same,"ANG,RNASE4, angiogenesis array expression (control = 1)",[2]; [4],2.068
same,"ANGPTL1, angiogenesis array expression (control = 1)",[2]; [4],0.8991
same,"ANGPTL4, angiogenesis array expression (control = 1)",[2]; [4],30.9206
same,"CDH5, angiogenesis array expression (control = 1)",[2]; [4],0.6144
same,"CEACAM1, angiogenesis array expression (control = 1)",[2]; [4],1.055
same,"COL15A1, angiogenesis array expression (control = 1)",[2]; [4],1.01
same,"CSF3, angiogenesis array expression (control = 1)",[2]; [4],0.9339
same,"FIGF, angiogenesis array expression (control = 1)",[2]; [4],1.127
same,"HGF, angiogenesis array expression (control = 1)",[2]; [4],0.5689
same,"IL8, angiogenesis array expression (control = 1)",[2]; [4],1.45
same,"TIMP2, angiogenesis array expression (control = 1)",[2]; [4],0.9298
same,"TIMP3, angiogenesis array expression (control = 1)",[2]; [4],0.7612
same,"TNMD, angiogenesis array expression (control = 1)",[2]; [4],0.5729
same,"TNNI1, angiogenesis array expression (control = 1)",[2]; [4],0.511
same,"VEGFA, angiogenesis array expression (control = 1)",[2]; [4],8.239
same,AUC % Extrapolated,[3]; 70 ng eyeball,21.1%
same,AUClast,[3]; 70 ng eyeball,72.3 nmol·days/g
same,Cmax,[3]; 70 ng eyeball,19.1 nmol/g
same,AUC % Extrapolated,[3]; 280 ng eyeball,2.2%
same,AUClast,[3]; 280 ng eyeball,147 nmol·days/g
same,Cmax,[3]; 280 ng eyeball,18 nmol/g
same,half-life,"[3]; 280 ng eyeball, read-out: T1/2 (converted)",42.2 h
same,half-life,"[3]; single 280 ng intraocular injection, read-out: t1/2 in retina (converted)",43.2 h
same,Tmax,[3]; 70 ng eyeball,24 h
same,Tmax,[3]; 280 ng eyeball,24 h
same,Cmax in neurosensory retina,[3]; single 70 ng intraocular injection,19.1 nmol/g
same,AUClast in retina,"[3]; single 70 ng intraocular injection, over 14 days",72.3 nmol·days/g
same,Cmax in neurosensory retina,[3]; single 280 ng intraocular injection,18 nmol/g
same,AUClast in retina,"[3]; single 280 ng intraocular injection, through 14 days",147 nmol·days/g
same,IC50 as used for time above IC50,[3]; threshold in the pharmacokinetic calculation,3.51 nmol/g
